Tested on: SARS-CoV-2-NLuc in A549-hACE2 cells
Experiment: microbe, parasite or virus in culture
Type: cell-based
Settings: Severe acute respiratory syndrome coronavirus 2, 48 h; read-out: MPro EC50

Compound	EC50 [nM]
COc1cc(-c2cc3c(s2)c(=O)n([C@@H]2CCCNC(=O)C2)c(=O)n3CC2(C#N)CC2)c(Cl)cc1F [Example 36, (R)-1-((6-(2-chloro-4-fluoro-5-methoxyphenyl)-2,4-dioxo-3-(2-oxoazepan-4-yl)-3,4-dihydrothieno[3,2-d]pyrimidin-1(2H)-yl)methyl)cyclopropane-1-carbonitrile]	< 4.07
COc1cc(-c2cc3c(s2)c(=O)n([C@@H]2CCCNC(=O)C2)c(=O)n3CCNC(C)=O)c(Cl)cc1F [Example 37, (R)—N-(2-(6-(2-chloro-4-fluoro-5-methoxyphenyl)-2,4-dioxo-3-(2-oxoazepan-4-yl)-3,4-dihydrothieno[3,2-d]pyrimidin-1(2H)-yl)ethyl)acetamide]	170
COc1cc(-c2cc3c(s2)c(=O)n([C@@H]2CCCNC(=O)C2)c(=O)n3CCOC(F)(F)F)c(Cl)cc1F [Example 38, (R)-6-(2-chloro-4-fluoro-5-methoxyphenyl)-3-(2-oxoazepan-4-yl)-1-(2-(trifluoromethoxy)ethyl)thieno[3,2-d]pyrimidine-2,4(1H,3H)-dione]	208
COc1cc(-c2cc3c(s2)c(=O)n([C@@H]2CCCNC(=O)C2)c(=O)n3CCN2CCCC2=O)c(Cl)cc1F [Example 39, (R)-6-(2-chloro-4-fluoro-5-methoxyphenyl)-3-(2-oxoazepan-4-yl)-1-(2-(2-oxopyrrolidin-1-yl)ethyl)thieno[3,2-d]pyrimidine-2,4(1H,3H)-dione]	148
COc1cc(-c2cc3c(s2)c(=O)n([C@@H]2CCCNC(=O)C2)c(=O)n3CCC(=O)N(C)C)c(Cl)cc1F [Example 40, (R)-3-(6-(2-chloro-4-fluoro-5-methoxyphenyl)-2,4-dioxo-3-(2-oxoazepan-4-yl)-3,4-dihydrothieno[3,2-d]pyrimidin-1(2H)-yl)-N,N-dimethylpropanamide]	137
COc1cc(-c2cc3c(s2)c(=O)n([C@@H]2CCCNC(=O)C2)c(=O)n3Cc2ncn(C)n2)c(Cl)cc1F [Example 41, (R)-6-(2-chloro-4-fluoro-5-methoxyphenyl)-1-((1-methyl-11H-1,2,4-triazol-3-yl)methyl)-3-(2-oxoazepan-4-yl)thieno[3,2-d]pyrimidine-2,4(1H,3H)-dione]	358
CNC(=O)CCn1c(=O)n([C@@H]2CCCNC(=O)C2)c(=O)c2sc(-c3cc(OC)c(F)cc3Cl)cc21 [Example 42, (R)-3-(6-(2-chloro-4-fluoro-5-methoxyphenyl)-2,4-dioxo-3-(2-oxoazepan-4-yl)-3,4-dihydrothieno[3,2-d]pyrimidin-1(2H)-yl)-N-methylpropanamide]	242
COc1cc(-c2cc3c(s2)c(=O)n([C@@H]2CCCNC(=O)C2)c(=O)n3CC(F)F)c(Cl)cc1F [Example 43, (R)-6-(2-chloro-4-fluoro-5-methoxyphenyl)-1-(2,2-difluoroethyl)-3-(2-oxoazepan-4-yl)thieno[3,2-d]pyrimidine-2,4(1H,3H)-dione]	34.4
COc1cnc(Cl)c(-c2cc3[nH]c(=O)n([C@@H]4CCCNC(=O)C4)c(=O)c3s2)c1 [Example 44, (R)-6-(2-chloro-5-methoxypyridin-3-yl)-3-(2-oxoazepan-4-yl)thieno[3,2-d]pyrimidine-2,4(1H,3H)-dione]	433
COc1cc(-c2cc3[nH]c(=O)n([C@@H]4CCCNC(=O)C4)c(=O)c3s2)c(C)cc1F [Example 45, (R)-6-(4-fluoro-5-methoxy-2-methylphenyl)-3-(2-oxoazepan-4-yl)thieno[3,2-d]pyrimidine-2,4(1H,3H)-dione]	137
COc1cc(-c2cc3[nH]c(=O)n([C@@H]4CCCNC(=O)C4)c(=O)c3s2)c(C#N)cc1F [Example 46, (R)-2-(2,4-dioxo-3-(2-oxoazepan-4-yl)-1,2,3,4-tetrahydrothieno[3,2-d]pyrimidin-6-yl)-5-fluoro-4-methoxybenzonitrile]	771
COc1cc(-c2cc3[nH]c(=O)n([C@@H]4CCCNC(=O)C4)c(=O)c3s2)c(Cl)cc1Cl [Example 47, (R)-6-(2,4-dichloro-5-methoxyphenyl)-3-(2-oxoazepan-4-yl)thieno[3,2-d]pyrimidine-2,4(1H,3H)-dione]	27.7
COc1cc(-c2cc3c(s2)c(=O)n([C@@H]2CCCNC(=O)C2)c(=O)n3CCC#N)c(Cl)cc1F [Example 48, (R)-3-(6-(2-chloro-4-fluoro-5-methoxyphenyl)-2,4-dioxo-3-(2-oxoazepan-4-yl)-3,4-dihydrothieno[3,2-d]pyrimidin-1(2H)-yl)propanenitrile]	16.4
COc1cc(-c2cc3c(s2)c(=O)n([C@@H]2CCCNC(=O)C2)c(=O)n3CCC#N)c(C#N)cc1F [Example 49, (R)-2-(1-(2-cyanoethyl)-2,4-dioxo-3-(2-oxoazepan-4-yl)-1,2,3,4-tetrahydrothieno[3,2-d]pyrimidin-6-yl)-5-fluoro-4-methoxybenzonitrile]	> 1000
COc1cnc(Cl)c(-c2cc3c(s2)c(=O)n([C@@H]2CCCNC(=O)C2)c(=O)n3CCC#N)c1 [Example 50, (R)-3-(6-(2-chloro-5-methoxypyridin-3-yl)-2,4-dioxo-3-(2-oxoazepan-4-yl)-3,4-dihydrothieno[3,2-d]pyrimidin-1(2H)-yl)propanenitrile]	> 1000
N#CCCn1c(=O)n([C@@H]2CCCNC(=O)C2)c(=O)c2sc(-c3ccccc3Cl)cc21 [Example 51, (R)-3-(6-(2-chlorophenyl)-2,4-dioxo-3-(2-oxoazepan-4-yl)-3,4-dihydrothieno[3,2-d]pyrimidin-1(2H)-yl)propanenitrile]	98
N#CCCn1c(=O)n([C@@H]2CCCNC(=O)C2)c(=O)c2sc(-c3ccccc3C#N)cc21 [Example 52, (R)-2-(1-(2-cyanoethyl)-2,4-dioxo-3-(2-oxoazepan-4-yl)-1,2,3,4-tetrahydrothieno[3,2-d]pyrimidin-6-yl)benzonitrile]	619
COc1cc(-c2cc3[nH]c(=O)n(C4CC(=O)NCC(C)(C)C4)c(=O)c3s2)c(Cl)cc1F (stereo not shown) [Example 55, 6-(2-chloro-4-fluoro-5-methoxyphenyl)-3-(6,6-dimethyl-2-oxoazepan-4-yl)thieno[3,2-d]pyrimidine-2,4(1H,3H)-dione]	102
COc1cc(-c2cc3[nH]c(=O)n([C@@H]4CCCNC(=O)C4)c(=O)c3cc2OC)c(C#N)cc1F [Example 56, (R)-5-fluoro-4-methoxy-2-(6-methoxy-2,4-dioxo-3-(2-oxoazepan-4-yl)-1,2,3,4-tetrahydroquinazolin-7-yl)benzonitrile]	795
COc1cc(-c2cc3[nH]c(=O)n([C@H]4CNC(=O)C4)c(=O)c3o2)c(Cl)cc1F [Example 57, 6-(2-chloro-4-fluoro-5-methoxy-phenyl)-3-[(3R)-5-oxopyrrolidin-3-yl]-1H-furo[3,2-d]pyrimidine-2,4-dione]	> 1000
COc1cc(-c2cc3[nH]c(=O)n(C4CCCCNC(=O)C4)c(=O)c3s2)c(Cl)cc1F (stereo not shown) [Example 58, 6-(2-chloro-4-fluoro-5-methoxyphenyl)-3-(2-oxoazocan-4-yl)thieno[3,2-d]pyrimidine-2,4(1H,3H)-dione]	723
COc1cc(-c2cc3[nH]c(=O)n([C@@H]4CCCNC(=O)C4)c(=O)c3o2)c(Cl)cc1F [Example 59, (R)-6-(2-chloro-4-fluoro-5-methoxyphenyl)-3-(2-oxoazepan-4-yl)furo[3,2-d]pyrimidine-2,4(1H,3H)-dione]	651

From patent US20250276979A1, “SARS-COV2 MAIN PROTEASE INHIBITORS” (Gilead Sciences, Inc., priority 2024, published 2025)
